{"source": "patent US11952328B2", "about": "“Selective ship inhibitors for treating disease” (THE RESEARCH FOUNDATION FOR THE STATE UNIVERSITY OF NEW YORK, priority 2018, dated 2024)", "key": {"SHIP1": {"target": "T1, SHIP1 (Homo sapiens, UniProt Q92835)", "T1 sequence (Q92835 1-1189)": "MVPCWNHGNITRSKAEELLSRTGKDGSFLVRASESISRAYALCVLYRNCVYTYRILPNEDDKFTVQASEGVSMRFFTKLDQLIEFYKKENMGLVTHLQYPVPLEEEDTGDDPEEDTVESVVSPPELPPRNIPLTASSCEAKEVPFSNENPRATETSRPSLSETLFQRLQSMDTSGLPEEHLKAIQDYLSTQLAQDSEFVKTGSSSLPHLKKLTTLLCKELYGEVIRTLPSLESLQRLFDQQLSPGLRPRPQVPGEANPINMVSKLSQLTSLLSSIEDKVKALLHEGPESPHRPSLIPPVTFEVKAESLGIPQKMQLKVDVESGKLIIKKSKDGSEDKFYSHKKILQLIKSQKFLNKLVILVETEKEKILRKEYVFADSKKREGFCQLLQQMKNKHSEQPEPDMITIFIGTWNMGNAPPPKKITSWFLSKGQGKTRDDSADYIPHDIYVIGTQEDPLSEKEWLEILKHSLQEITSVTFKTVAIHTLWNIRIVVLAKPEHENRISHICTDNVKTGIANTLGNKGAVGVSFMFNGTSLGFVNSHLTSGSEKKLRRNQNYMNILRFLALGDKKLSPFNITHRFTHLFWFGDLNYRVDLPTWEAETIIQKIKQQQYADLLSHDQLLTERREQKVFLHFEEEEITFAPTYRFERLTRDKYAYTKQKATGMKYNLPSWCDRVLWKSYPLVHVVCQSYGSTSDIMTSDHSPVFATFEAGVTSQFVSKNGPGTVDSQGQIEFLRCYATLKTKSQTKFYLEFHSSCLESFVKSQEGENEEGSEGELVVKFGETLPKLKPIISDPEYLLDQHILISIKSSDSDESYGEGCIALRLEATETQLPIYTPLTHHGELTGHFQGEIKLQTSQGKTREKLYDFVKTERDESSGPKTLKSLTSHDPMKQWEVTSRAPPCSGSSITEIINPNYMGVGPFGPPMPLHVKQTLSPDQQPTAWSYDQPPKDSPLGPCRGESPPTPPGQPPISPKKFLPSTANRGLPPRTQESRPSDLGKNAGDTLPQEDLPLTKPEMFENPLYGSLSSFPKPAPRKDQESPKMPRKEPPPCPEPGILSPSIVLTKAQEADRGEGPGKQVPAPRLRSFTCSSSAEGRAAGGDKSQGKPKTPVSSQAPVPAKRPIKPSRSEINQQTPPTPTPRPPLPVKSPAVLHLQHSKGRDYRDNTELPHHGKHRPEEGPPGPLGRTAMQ", "conditions": "Brooks et al. 2010; cited from earlier work"}, "CD8+ T cells": {"system": "CD8+ T cells", "assay": "CD8 T cell activation (CD69) and degranulation (CD107a) after two-day in vivo treatment", "parameters": "species or system mice", "method": "FIGS. 3B-3E show activation of NK cells and T cells following exposure to the SHIP1 inhibitor 3AC in vivo. NK cells from two-day 3AC- or vehicle-treated mice were stimulated by incubation on uncoated plates, on plates coated with anti-NK1.1, anti-NKp46, or anti-NKG2D antibody, or on uncoated plates but in the presence of PMA and ionomycin. Representative flow plots (FIG. 3B) and box and whisker plots (FIG. 3C) show the frequency of NK cell production of IFNγ determined by intracellular flow cytometry. […] Anti-CD107a (LAMP-1) PE antibody was added for the final 5 hours of incubation. Degranulation of CD8+ T cells was determined by analysis of CD107a expression by flow cytometry. NK cells are defined as NK1.1+CD3ε− and CD8+ T cells as NK1.1-CD3ε+CD8+CD4−. Graphs are representative of at least two independent experiments with at least four 3AC- and vehicle-treated mice per group (FIGS. 3B-3C) or pooled data from two independent experiments is shown (FIGS. 3D-3F). FIG. 3C (unstim: n=4, p=0.0962, Unpaired t test with Welch's correction. NK1.1: n=4, p=0.0038, Two-tailed student's T test. NKG2D: n=4, p=0.0450, Two-tailed student's T test. NKp46: n=4, p=0.0144, Two-tailed student's T test. PMA: p=0.2945, Two-tailed student's T test). FIG. 3D (n=8, p=0.0153, Unpaired T test with Welch's correction). FIG. 3E (n=8, p=0.0009, Two-tailed student's T test) FIG. 3F (n=9, p=0.0083, Two-tailed student's T test).\nTo determine if SHIP inhibitors are also capable of activating the other major type of cytotoxic lymphocyte the responsiveness of CD8 T cells following the same, short-term, 3AC treatment was examined."}, "[1]": {"conditions": "splenic CD8+ T cells, two-day 3AC vs vehicle"}}}
{"smiles": "CC(C)CCC[C@@H](C)[C@H]1CC[C@H]2[C@@H]3CCC4C[C@H](N)CC[C@]4(C)[C@H]3CC[C@]12C", "note": "(stereo partly drawn) [Compound 3AC, 3-α-aminocholestane]", "values": [{"measurement": "selectivity for SHIP1", "setting": "SHIP1", "result": "high degree of selectivity"}, {"measurement": "percentage of activated CD8 T cells (CD69 expression)", "setting": "CD8+ T cells; [1]", "result": "significantly increased"}, {"measurement": "surface expression of CD69 amongst CD8 T cells", "setting": "CD8+ T cells; [1]", "result": "increased"}, {"measurement": "LAMP-1 (CD107a) expression of CD8 T cells (degranulation)", "setting": "CD8+ T cells; splenic CD8 T cells, crosslinking of TcR and CD28 (anti-CD3, anti-CD28) overnight", "result": "increased frequency"}]}
